Results published in US12097199B2, “Administration of SUMO-activating enzyme inhibitor and anti-CD20 antibodies” (Takeda Pharmaceutical Company Limited, priority 2018, dated 2024).

Tests used:
[1] = test system: WSU-DLCL2 human diffuse large B-cell lymphoma xenograft; assay: Study 3: WSU-DLCL2 xenograft model, in vivo tumor efficacy; set-up: species or system SCID mice
Experimental: WSU-DLCL2 Study 3: WSU-DLCL2 is a human diffuse large B-cell lymphoma cell-line derived xenograft. 7 week old female SCID mice (Charles River Laboratories) were inoculated subcutaneously in the right flank (cell suspension with 4.0×10^6 cells). When the mean tumor volume reached approximately 200 mm^3, the animals were randomized into treatment groups and control groups (n=8/group). Tumor growth inhibition and body weight change were calculated on Day 21 of treatment. Tumor volumes below the humane end-point for size were continually monitored following the end of treatment (post-treatment period) for an additional week.
(§1) Tumors were measured twice weekly using vernier calipers. Tumor volumes were calculated using standard procedures V=W^2×L/2, where V=volume, W=width, and L=length for the tumor xenograft. […] Tumor size and body weight were measured twice a week for the duration of the study. Mice were euthanized when the average tumor volume of a treatment or control group reached approximately 1000 mm^3 or when an individual tumor exceeded the humane end-point for size.
(§2) These values were compared across treatment groups to assess whether the differences in the trends over time were statistically significant. To compare pairs of treatment groups, the following mixed-effects linear regression model was fit to the data using the maximum likelihood method: Yijk−Yi0k=Yi0k+treati+dayi+dayj^2+(treat*day)ij+(treat*day^2)ij+eijk (1) where Yijk is the log10 tumor value at the j^th time point of the k^th animal in the i^th treatment, Yi0k is the day 0 (baseline) log10 tumor value in the k^th animal in the i^th treatment, day, was the median-centered time point and (along with dayj^2) was treated as a continuous variable, and eijk is the residual error. A spatial power law covariance matrix was used to account for the repeated measurements on the same animal over time. Interaction terms as well as dayj^2 terms were removed if they were not statistically significant.
(§3) The predicted differences in the log tumor values (Yijk−Yi0k, which can be interpreted as log10 (fold change from day 0)) were taken from the above models to calculate mean AUC values for each treatment group. A dAUC value was then calculated as: […]
(§4) For synergy analyses, the observed differences in the log tumor values were used to calculate AUC values for each animal. […] The AUC for the control, or vehicle, group was calculated using the predicted values from the pairwise models described above. We defined a measure of synergy as follows:
(§5) The effect was classified into four different categories. It was considered synergistic if the synergy score was less than 0 and additive if the synergy score wasn't statistically different from 0.
In the WSU-DLCL2 diffuse large B-cell lymphoma xenograft model, mice were inoculated, randomized on Day 0 (8 days post inoculation), and treatments began on Day 1 for all groups. […] One group served as the vehicle-treated group (Group 1) receiving IV treatment with the vehicle for I-263a (20% HPβCD) on a QW schedule.

[2] = test system: OCI-Ly10 human diffuse large B-cell lymphoma xenograft; assay: Study 2: OCI-Ly10 xenograft model, in vivo tumor efficacy; set-up: species or system SCID mice; conditions: for TGI %: Day 21
Experimental: OCI-Ly10 Study 2: OCI-Ly 10 is a human diffuse large B-cell lymphoma cell-line derived xenograft. 8 week old female SCID mice (Beijing HFK Bioscience Co., Ltd.) were inoculated subcutaneously in the right flank (cell suspension) with 4×10^6 OCI-Ly 10 cells. When the mean tumor volume reached approximately 200 mm^3, the animals were randomized into treatment and control groups (n=8/group). Tumor growth inhibition and body weight change were calculated on Day 21 of treatment.
Final doses received were 10 mg/kg or 5 mg/kg, respectively.
as §1, §2, §3, §4, §5
In the OCI-Ly 10 diffuse large B-cell lymphoma xenograft model, mice were inoculated, randomized on Day 0 (30 days post inoculation), and treatments began on Day 1 for all groups. […] One group served as the vehicle-treated group (Group 1) receiving IV treatment with the vehicle for I-263a (20% HPβCD) on a QW schedule.

[3] = test system: SUMO-activating enzyme and SUMOylation; assay: Inhibition of SAE and SUMOylation in cultured tumor cell lines; assay type: cell-based; conditions: cultured mouse and human tumor cell lines
Text: (§6) SAE inhibitors, as disclosed herein, are described, for example, in US 2016/0009744 and U.S. Pat. No. 9,695,154. They may be prepared by methods known to one skilled in the art and/or according to the methods described in US 2016/0009744 and U.S. Pat. No. 9,695,154, which is hereby incorporated by reference in its entirety. Central to the mechanism of action of useful SAE inhibitors, such as Compound I-263a, in combinations and methods of the present disclosure is production of type 1 IFNs and induction of an innate immune response with activation of both natural killer (NK) cells and macrophages.

[4] = test system: PHTX-166L human patient-derived primary B-cell lymphoma xenograft; assay: Study 6: PHTX-166L primary xenograft model, in vivo tumor efficacy; set-up: species or system mice
Experimental: Small tumor pieces measuring approximately 2 mm×2 mm were implanted subcutaneousy on the right flank via trocar injection.
as §1, §2, §3, §4, §5
(§7) One group served as the vehicle-treated group (Group 1) receiving IV treatment with the vehicle for I-263a (20% HPβCD) on a QW schedule.

[5] = test system: TMD8 human diffuse large B-cell lymphoma xenograft; assay: Study 4: TMD8 xenograft model, in vivo tumor efficacy; set-up: species or system SCID mice; conditions: for TGI %: Day 18
Experimental: TMD8 Study 4: TMD8 is a human diffuse large B-cell lymphoma cell-line derived xenograft. 8 week old female SCID mice (Beijing HFK Bioscience Co., Ltd) were inoculated subcutaneously in the right flank (cell suspension with 4×10^6 cells). When the mean tumor volume reached approximately 190 mm^3, the animals were randomized into treatment groups and control groups (n=8/group). Tumor growth inhibition and body weight change were calculated on Day 18 of treatment. Tumor volumes below the humane end-point for size were continually monitored following the end of treatment (post-treatment period) for an additional week.
(§8) Final doses received were 25 mg/kg or 15 mg/kg, respectively.
as §1, §2, §3, §4, §5
In the TMD8 diffuse large B-cell lymphoma xenograft model, mice were inoculated, randomized on Day 0 (10 days post inoculation), and treatments began on Day 1 for all groups. […] One group served as the vehicle-treated group (Group 1) receiving IV treatment with the vehicle for I-263a (20% HPβCD) on a QW schedule.

[6] = test system: PHTX-166L human patient-derived B-cell lymphoma primary xenograft; assay: Study 5: PHTX-166L primary xenograft model, in vivo tumor efficacy; set-up: species or system mice; conditions: for TGI %: Day 11
Experimental: PHTX-166L Study 5: PHTX-166L is a human patient-derived B-cell lymphoma primary xenograft. Small tumor pieces measuring approximately 2 mm×2 mm were implanted subcutaneousy on the right flank via trocar injection. When the mean tumor volume reached approximately 160 mm^3, the animals were randomized into treatment groups and control groups (n=7/group). Tumor growth inhibition and body weight change were calculated on Day 11 of treatment. Tumor volumes below the humane end-point for size were continually monitored following the end of treatment (post-treatment period) until Day 146 post treatment initiation.
as §1, §2, §3, §4, §5
In the PHTX-166L patient-derived primary B-cell lymphoma xenograft model, mice were inoculated, randomized on Day 0 (24 days post inoculation), and treatments began on Day 1 for all groups. […] One group served as the vehicle-treated group (Group 1) receiving IV treatment with the vehicle for I-263a (20% HPβCD) on a QW schedule.

[7] = test system: OCI-Ly10 human diffuse large B-cell lymphoma xenograft; assay: Study 1: OCI-Ly10 xenograft model, in vivo tumor efficacy; set-up: species or system SCID mice; conditions: for TGI %: Day 21; for dAUC: unit assumed
Experimental: OCI-Ly 10 Study 1: OCI-Ly 10 is a human diffuse large B-cell lymphoma cell-line derived xenograft. 6 week old female SCID mice (Beijing HFK Bioscience Co., Ltd.) were inoculated subcutaneously in the right flank (cell suspension) with 4×10^6 OCI-Ly10 cells. When the mean tumor volume reached approximately 200 mm^3, the animals were randomized into treatment and control groups (n=7/group). Tumor growth inhibition and body weight change were calculated on Day 21 of treatment.
as §8, §1, §2, §3, §4, §5, §7

SUMO-activating enzyme = SUMO-activating enzyme (Homo sapiens, UniProt Q9UBT2); assay: Biochemical assays of SUMO-activating enzyme inhibition
Text: as §6

[8] = Group B: I-263a 5.0 mg/kg IV QW
[9] = single-agent I-263a (25 and 15 mg/kg)
[10] = Group C: I-263a 12.5 mg/kg IV QW

SUMO-activating enzyme, sequence (Q9UBT2 whole entry): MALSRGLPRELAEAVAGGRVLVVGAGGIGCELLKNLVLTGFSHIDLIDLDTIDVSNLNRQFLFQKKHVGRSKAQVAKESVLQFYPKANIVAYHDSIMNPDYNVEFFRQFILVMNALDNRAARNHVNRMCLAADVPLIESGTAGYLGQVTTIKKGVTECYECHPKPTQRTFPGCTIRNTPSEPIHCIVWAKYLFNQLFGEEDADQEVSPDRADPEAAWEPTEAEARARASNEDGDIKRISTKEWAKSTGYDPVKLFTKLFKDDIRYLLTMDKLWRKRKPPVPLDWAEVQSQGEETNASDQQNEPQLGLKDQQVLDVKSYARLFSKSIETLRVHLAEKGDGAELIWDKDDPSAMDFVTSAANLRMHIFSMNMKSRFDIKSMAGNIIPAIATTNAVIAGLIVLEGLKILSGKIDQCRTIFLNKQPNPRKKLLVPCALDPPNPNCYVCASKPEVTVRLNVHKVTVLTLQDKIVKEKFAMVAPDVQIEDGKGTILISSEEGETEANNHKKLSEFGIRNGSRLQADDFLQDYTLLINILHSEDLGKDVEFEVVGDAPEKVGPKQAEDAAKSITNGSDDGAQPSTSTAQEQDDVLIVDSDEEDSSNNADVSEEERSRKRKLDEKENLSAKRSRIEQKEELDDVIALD
SUMO-activating enzyme, sequence (Q9UBE0 whole entry partner): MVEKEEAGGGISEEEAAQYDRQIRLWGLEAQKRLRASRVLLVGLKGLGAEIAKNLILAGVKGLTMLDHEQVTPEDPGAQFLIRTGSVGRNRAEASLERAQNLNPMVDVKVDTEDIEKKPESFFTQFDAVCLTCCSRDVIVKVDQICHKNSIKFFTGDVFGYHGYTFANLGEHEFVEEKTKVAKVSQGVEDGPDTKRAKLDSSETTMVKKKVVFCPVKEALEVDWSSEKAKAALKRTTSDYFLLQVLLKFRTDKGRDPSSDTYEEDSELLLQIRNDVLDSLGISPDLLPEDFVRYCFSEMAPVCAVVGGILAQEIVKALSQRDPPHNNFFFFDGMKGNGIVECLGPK
SUMO-activating enzyme, sequence (P63165 1-97 partner limits assumed): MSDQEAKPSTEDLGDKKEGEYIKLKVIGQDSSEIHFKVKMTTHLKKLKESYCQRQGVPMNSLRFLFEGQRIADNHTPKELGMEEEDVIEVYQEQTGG

Cc1sc(C(=O)c2cncnc2N[C@@H]2C[C@H](COS(N)(=O)=O)[C@@H](O)C2)cc1[C@@H]1NCCc2ccc(Cl)cc21 [Compound I-263a, [(1R,2S,4R)-4-{[5-({4-[(1R)-7-chloro-1,2,3,4-tetrahydroisoquinolin-1-yl]-5-methyl-2-thienyl}carbonyl)pyrimidin-4-yl]amino}-2-hydroxycyclopentyl]methyl sulfamate]
Days to 1000 mm^3 MTV ([1]; Group B: I-263a 5 mg/kg IV QW): 17.2 days
Tumor volume on Day 21 (±SEM) ([1]; Group B: I-263a 5 mg/kg IV QW): 1340.3 ± 188.1 mm^3
dAUC ([1]; Group B: I-263a 5 mg/kg IV QW): 28.1
TGI % ([1]; Group B: I-263a 5 mg/kg IV QW, Day 21): 37.6%
Day by which all mice were euthanized (group reached 1000 mm^3 or humane end-point for size) ([1]; single-agent I-263a 5 mg/kg): ≤ 24 days
Days to 1000 mm^3 MTV ([2]; Group B: I-263a 10 mg/kg IV QW): 32.1 days
Tumor volume on Day 21 (±SEM) ([2]; Group B: I-263a 10 mg/kg IV QW): 706.9 ± 51.3 mm^3
dAUC ([2]; Group B: I-263a 10 mg/kg IV QW): 25.6
TGI % ([2]; Group B: I-263a 10 mg/kg IV QW): 41.3%
Days to 1000 mm^3 MTV ([2]; Group C: I-263a 5 mg/kg IV QW): 28.7 days
Tumor volume on Day 21 (±SEM) ([2]; Group C: I-263a 5 mg/kg IV QW): 759.3 ± 33.2 mm^3
dAUC ([2]; Group C: I-263a 5 mg/kg IV QW): 26.8
TGI % ([2]; Group C: I-263a 5 mg/kg IV QW): 37%
Day by which all mice were euthanized (group reached 1000 mm^3 or humane end-point for size) ([2]; single-agent I-263a (10 and 5 mg/kg)): ≤ 35 days
Inhibition of SUMO-activating enzyme and SUMOylation in cells [3]: Selective and potent inhibition
Days to 1000 mm^3 MTV [4, 8]: 9.1 days
dAUC [4, 8]: 34.3
Tumor volume on Day 9 (±SEM) ([4]; Group B: I-263a 5.0 mg/kg IV QW (Days 1 and 8)): 992.2 ± 115.2 mm^3
TGI % ([4]; Group B: I-263a 5.0 mg/kg IV QW, Day 9): 51.4%
Days to 1000 mm^3 MTV ([5]; Group B: I-263a 25 mg/kg IV QW): 14.1 days
Tumor volume on Day 18 (±SEM) ([5]; Group B: I-263a 25 mg/kg IV QW): 1297.4 ± 120.2 mm^3
dAUC ([5]; Group B: I-263a 25 mg/kg IV QW): 13.6
TGI % ([5]; Group B: I-263a 25 mg/kg IV QW): 27.8%
Days to 1000 mm^3 MTV ([5]; Group C: I-263a 15 mg/kg IV QW): 12.8 days
Tumor volume on Day 18 (±SEM) ([5]; Group C: I-263a 15 mg/kg IV QW): 1604.1 ± 144.7 mm^3
dAUC ([5]; Group C: I-263a 15 mg/kg IV QW): 10.1
TGI % ([5]; Group C: I-263a 15 mg/kg IV QW): 10.7%
Day by which all mice were euthanized (group reached 1000 mm^3 or humane end-point for size) [5, 9]: ≤ 120 days
Days to 1000 mm^3 MTV ([6]; Group B: I-263a 25 mg/kg IV QW): >18 days
dAUC ([6]; Group B: I-263a 25 mg/kg IV QW): 45.0
Tumor volume on Day 11 (±SEM) ([6]; Group B: I-263a 25 mg/kg IV QW (Days 1 and 8)): 540.2 ± 58.5 mm^3
TGI % ([6]; Group B: I-263a 25 mg/kg IV QW): 72%
Days to 1000 mm^3 MTV [6, 10]: 13.2 days
dAUC [6, 10]: 35.4
Tumor volume on Day 11 (±SEM) ([6]; Group C: I-263a 12.5 mg/kg IV QW (Days 1 and 8)): 758.2 ± 104.7 mm^3
TGI % [6, 10]: 60.6%
Days to 1000 mm^3 MTV ([7]; Group B: I-263a 25 mg/kg IV QW): 39 days
Tumor volume on Day 21 (±SEM) ([7]; Group B: I-263a 25 mg/kg IV QW): 409.7 ± 19.2 mm^3
TGI % ([7]; Group B: I-263a 25 mg/kg IV QW): 31.3%
dAUC ([7]; Group B: I-263a 25 mg/kg IV QW): 23.6%
Days to 1000 mm^3 MTV ([7]; Group C: I-263a 15 mg/kg IV QW): 37.6 days
Tumor volume on Day 21 (±SEM) ([7]; Group C: I-263a 15 mg/kg IV QW): 443.7 ± 12.3 mm^3
TGI % ([7]; Group C: I-263a 15 mg/kg IV QW): 25.6%
dAUC ([7]; Group C: I-263a 15 mg/kg IV QW): 21.4%
Day by which all mice were euthanized (group reached 1000 mm^3 or humane end-point for size) [7, 9]: ≤ 120 days
Inhibition of SUMO-activating enzyme activity (SUMO-activating enzyme; mechanism-based inhibitor forming a covalent adduct with SUMO): potently inhibits enzyme activity
Selectivity for SUMO-activating enzyme (SUMO-activating enzyme; over ubiquitin-activating enzyme, Nedd8-activating enzyme, and autophagy related 7 enzyme): Strong selectivity
